Data on 40 molecules can be found in EP2818472A1, “Imidazo[4,5-c]pyridine and pyrrolo[3,2-c]pyridine compounds as G-protein-coupled receptor kinase 5 (GRK5) modulators” (Max-Planck-Gesellschaft zur Förderung der Wissenschaften …, priority 2013, dated 2014).

In the assay the test system is beta-TC6 cells. As to the kind of experiment: Insulin HTRF assay (relative activity Ar) in beta-TC6 cells. The conditions noted are these: Mus musculus, Beta-TC6, 4 h, insulin HTRF, supernatant of beta-TC6 cells, incubation with test compound at 37°C for 2, 3, 4h; read-out: Ar (relative activity). The format is cell-based, mouse. An outline of the steps: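 beta-TC6 cells (15k/well, seeded 24 or 48 h) washed, then exposed to compound in induction buffer (0.5% DMSO final) for 2, 3 or 4 h at 37°C.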
As for `CS(=O)(=O)c1cccc(Nc2nccc3[nH]c(-c4ccsc4)cc23)c1` [Compound 262, N-(3-methylsulfonylphenyl)-2-(3-thienyl)-1H-pyrrolo[3,2-c]pyridin-4-amine], the Emax was 50 to 100%.
Then `FC(F)(F)c1cccc(-c2cc3c(Nc4cccnc4)nccc3[nH]2)c1` [Compound 196, N-(3-pyridyl)-2-[3-(trifluoromethyl)phenyl]-1H-pyrrolo[3,2-c]pyridin-4-amine], with 50 to 100%; and `CC(=O)N(C)c1cccc(-c2cc3cnc(Nc4ccc(C#N)cc4)cc3n2C)c1` [Compound 168, N-[3-[6-(4-cyanoanilino)-1-methyl-pyrrolo[3,2-c]pyridin-2-yl]phenyl]-N-methyl-acetamide], with 30 to 50%.
On to `CNc1nc2cnc(Nc3cccc(NC(C)=O)c3)cc2n1-c1cccc(F)c1` [Compound 688, N-[3-[[1-(3-fluorophenyl)-2-(methylamino)imidazo[4,5-c]pyridin-6-yl]amino]phenyl]acetamide], for which the Emax was in the range of 50 to 100%.
Take `Cc1cccc(CNc2nc3cnc(-c4ccc(N(C)C)cc4)cc3n2C)c1` [Compound 802, 6-(4-dimethylaminophenyl)-1-methyl-N-(m-tolylmethyl)imidazo[4,5-c]pyridin-2-amine]: the Emax lay in the range of 50 to 100%.
Then `c1ccc(Nc2nccc3[nH]c(-c4ccc5c(c4)OCCO5)nc23)cc1` [Compound 412, 2-(2,3-dihydro-1,4-benzodioxin-6-yl)-N-phenyl-1H-imidazo[4,5-c]pyridin-4-amine], with 30 to 50%; and `COc1ccc(-c2nc3c(NCc4ccccc4)nccc3[nH]2)cc1OC` [Compound 347, N-benzyl-2-(3,4-dimethoxyphenyl)-1H-imidazo[4,5-c]pyridin-4-amine], with 50 to 100%.
As for `CNc1nc2cnc(Nc3ccc(C(=O)N(C)C)cc3)cc2n1Cc1ccccc1` [Compound 537, 4-[[1-benzyl-2-(methylamino)imidazo[4,5-c]pyridin-6-yl]amino]-N,N-dimethyl-benzamide], the figure is 50 to 100%.
Then `Cn1c(NCC2CCCO2)nc2cnc(-c3ccc(N4CCOCC4)cc3)cc21` (stereo not shown) [Compound 640, 1-methyl-6-(4-morpholinophenyl)-N-(tetrahydrofuran-2-ylmethyl)imidazo[4,5-c]pyridin-2-amine], with 30 to 50%; and `COc1ccc(-c2cc3c(cn2)nc(NCc2cccc(C)c2)n3C)cc1OC` [Compound 579, 6-(3,4-dimethoxyphenyl)-1-methyl-N-(m-tolylmethyl)imidazo[4,5-c]pyridin-2-amine], with 30 to 50%; and `COc1ccc(Nc2cc3[nH]c(-c4ccccc4)cc3cn2)cc1OC` [Compound 175, N-(3,4-dimethoxyphenyl)-2-phenyl-1 H-pyrrolo[3,2-c]pyridin-6-amine], with 50 to 100%.
In the case of `Cn1c(NCC2CCCO2)nc2cnc(-c3cccs3)cc21` (stereo not shown) [Compound 852, 1-methyl-N-(tetrahydrofuran-2-ylmethyl)-6-(2-thienyl)imidazo[4,5-c]pyridin-2-amine], the Emax fell in the range of 30 to 50%.
As to `Cn1c(-c2cccc(Cl)c2)cc2c(N3CCOCC3)nccc21` [Compound 195, 4-[2-(3-chlorophenyl)-1-methyl-pyrrolo[3,2-c]pyridin-4-yl]morpholine], the Emax was 30 to 50%.
On to `CNc1nc2cnc(Nc3ccc(OC)cc3OC)cc2n1CC1CC1` [Compound 569, 1-(cyclopropylmethyl)-N6-(2,4-dimethoxyphenyl)-N2-methyl-imidazo[4,5-c]pyridine-2,6-diamine], for which the Emax lay in the range of 30 to 50%.
Then `COc1cccc(-c2nc3c(Nc4cccc(C(F)(F)F)c4)nccc3[nH]2)c1` [Compound 373, 2-(3-methoxyphenyl)-N-[3-(trifluoromethyl)phenyl]-1H-imidazo[4,5-c]pyridin-4-amine], with 0 to 30%.
Then `COc1ccc(Nc2nccc3c2cc(-c2cccnc2)n3C)c(C)c1` [Compound 240, N-(4-methoxy-2-methyl-phenyl)-1-methyl-2-(3-pyridyl)pyrrolo[3,2-c]pyridin-4-amine], with 0 to 30%; and `CN(C)C(=O)c1ccc(Nc2cc3c(cn2)nc(-c2ccco2)n3C)cc1` [Compound 711, 4-[[2-(2-furyl)-1-methyl-imidazo[4,5-c]pyridin-6-yl]amino]-N,N-dimethyl-benzamide], with 50 to 100%.
As for `CNc1nc2cnc(Nc3cccc(OC)c3)cc2n1Cc1ccc(OC)c(OC)c1` [Compound 662, 1-[(3,4-dimethoxyphenyl)methyl]-N6-(3-methoxyphenyl)-N2-methyl-imidazo[4,5-c]pyridine-2,6-diamine], the Emax fell in the range of 50 to 100%.
Turning to `c1ccc(CNc2nccc3[nH]c(-c4cccnc4)nc23)cc1` [Compound 360, N-benzyl-2-(3-pyridyl)-1H-imidazo[4,5-c]pyridin-4-amine], the Emax was in the range of 0 to 30%.
As for `FC(F)(F)Oc1cccc(Nc2cc3[nH]c(-c4ccccn4)cc3cn2)c1` [Compound 69, 2-(2-pyridyl)-N-[3-(trifluoromethoxy)phenyl]-1H-pyrrolo[3,2-c]pyridin-6-amine], the figure is 30 to 50%; as for `CN(C)C(=O)c1ccc(Nc2cc3[nH]c(-c4cccc(F)c4)cc3cn2)cc1` [Compound 14, 4-[[2-(3-fluorophenyl)-1H-pyrrolo[3,2-c]pyridin-6-yl]amino]-N,N-dimethyl-benzamide], 30 to 50%.
As for `CC(=O)Nc1ccc(Nc2nccc3[nH]c(-c4cccc(F)c4)cc23)cc1` [Compound 198, N-[4-[[2-(3-fluorophenyl)-1H-pyrrolo[3,2-c]pyridin-4-yl]amino]phenyl]acetamide], the figure is 50 to 100%; as for `COc1ccc(Nc2nccc3[nH]c(-c4cccc(OC(F)(F)F)c4)nc23)cc1O` [Compound 444, 2-methoxy-5-[[2-[3-(trifluoromethoxy)phenyl]-1H-imidazo[4,5-c]pyridin-4-yl]amino]phenol], 30 to 50%; as for `CNc1nc2cnc(Nc3cc(C(F)(F)F)ccc3F)cc2n1Cc1ccco1` [Compound 777, N6-[2-fluoro-5-(trifluoromethyl)phenyl]-1-(2-furylmethyl)-N2-methyl-imidazo[4,5-c]pyridine-2,6-diamine], 0 to 30%.
As for `CC(=O)c1cccc(Nc2nccc3[nH]c(-c4ccsc4)cc23)c1` [Compound 267, 1-[3-[[2-(3-thienyl)-1H-pyrrolo[3,2-c]pyridin-4-yl]amino]phenyl]ethanone], the figure is 50 to 100%; as for `COc1ccc(-c2nc3c(N4CCN(C)CC4)nccc3[nH]2)cc1OC` [Compound 346, 2-(3,4-dimethoxyphenyl)-4-(4-methylpiperazin-1-yl)-1H-imidazo[4,5-c]pyridine], 50 to 100%; as for `CN(C)C(=O)c1ccc(-c2cc3cnc(Nc4cccc(NS(C)(=O)=O)c4)cc3n2C)cc1` [Compound 55, 4-[6-[3-(methanesulfonamido)anilino]-1-methyl-pyrrolo[3,2-c]pyridin-2-yl]-N,N-dimethyl-benzamide], 50 to 100%.
On to `Fc1ccc(Nc2cc3[nH]c(-c4ccccc4)cc3cn2)cc1` [Compound 179, N-(4-fluorophenyl)-2-phenyl-1H-pyrrolo[3,2-c]pyridin-6-amine], for which the Emax was 30 to 50%.
As for `COc1ccccc1-c1cc2c(Nc3ccc4c(c3)OCO4)nccc2[nH]1` [Compound 296, N-(1,3-benzodioxol-5-yl)-2-(2-methoxyphenyl)-1H-pyrrolo[3,2-c]pyridin-4-amine], the figure is 30 to 50%; as for `CNc1nc2cnc(-c3cccc(OC(F)(F)F)c3)cc2n1Cc1ccccc1` [Compound 762, 1-benzyl-N-methyl-6-[3-(trifluoromethoxy)phenyl]imidazo[4,5-c]pyridin-2-amine], 0 to 30%; as for `c1ccc(-c2cc3c(Nc4ccccn4)nccc3[nH]2)cc1` [Compound 321, 2-phenyl-N-(2-pyridyl)-1H-pyrrolo[3,2-c]pyridin-4-amine], 30 to 50%.
As for `COc1ccc(-c2cc3c(cn2)nc(NCc2ccccc2F)n3C)cc1OC` [Compound 865, 6-(3,4-dimethoxyphenyl)-N-[(2-fluorophenyl)methyl]-1-methyl-imidazo[4,5-c]pyridin-2-amine], the figure is 30 to 50%; as for `CC(=O)Nc1cccc(Nc2cc3c(cn2)nc(NCc2ccccc2)n3C)c1` [Compound 627, N-[3-[[2-(benzylamino)-1-methyl-imidazo[4,5-c]pyridin-6-yl]amino]phenyl]acetamide], 50 to 100%; as for `COc1ccc(CNc2nccc3c2ncn3Cc2ccccc2)cc1` [Compound 455, 1-benzyl-N-[(4-methoxyphenyl)methyl]imidazo[4,5-c]pyridin-4-amine], 0 to 30%.
Then `COc1cc(Nc2nc3cnc(-c4ccccc4)cc3n2C)cc(OC)c1OC` [Compound 588, 1-methyl-6-phenyl-N-(3,4,5-trimethoxyphenyl)imidazo[4,5-c]pyridin-2-amine], with 30 to 50%; and `Cn1c(Nc2ccccc2)nc2cnc(Nc3cccnc3)cc21` [Compound 633, 1-methyl-N2-phenyl-N6-(3-pyridyl)imidazo[4,5-c]pyridine-2,6-diamine], with 50 to 100%; and `CN(C)c1cccc(Nc2cc3c(cn2)cc(-c2cccnc2)n3C)c1` [Compound 89, N1,N1-dimethyl-N3-[1-methyl-2-(3-pyridyl)pyrrolo[3,2-c]pyridin-6-yl]benzene-1,3-diamine], with 50 to 100%.
`COc1ccc(Nc2nccc3c2cc(-c2ccc(C(=O)N(C)C)cc2)n3C)cn1` [Compound 216, 4-[4-[(6-methoxy-3-pyridyl)amino]-1-methyl-pyrrolo[3,2-c]pyridin-2-yl]-N,N-dimethyl-benzamide]: the Emax lay within 50 to 100%.
As for `CNc1nc2cnc(Nc3ccc(SC)cc3)cc2n1CCOC` [Compound 499, 1-(2-methoxyethyl)-N2-methyl-N6-(4-methylsulfanylphenyl)imidazo[4,5-c]pyridine-2,6-diamine], the figure is 50 to 100%; as for `COC(=O)c1ccc(Nc2cc3[nH]c(-c4ccc(C(=O)N(C)C)cc4)cc3cn2)cc1` [Compound 29, methyl 4-[[2-[4-(dimethylcarbamoyl)phenyl]-1H-pyrrolo[3,2-c]pyridin-6-yl]amino]benzoate], 30 to 50%.
